{
  "source": "patent US8987195B2",
  "about": "(priority 2012, dated 2015)",
  "key": {"HCV genotype 1b replicon": {"system": "HCV genotype 1b replicon", "assay": "HCV replicon assay, genotype 1b replicon EC50", "assay_type": "cell-based, Hepatitis C virus", "conditions": "Hepatitis C virus, genotype 1b replicon, read-out: EC50 [gt-1b]", "method_in_brief": "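Assay format: compound titration on stable replicon cells, no G418 during treatment, 24 to 48 hours. Lysates were assayed for replicon RNA (hybridization/protection or TaqMan) or luciferase; EC50 fitted to four parameters against DMSO.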"}, "[1]": {"biological_target": "HCV NS3/4A protease genotype 1b (Hepatitis C virus genotype 1b, UniProt P26663)", "assay": "HCV NS3/4A protease time-resolved fluorescence (TRF) assay, Ki against genotype 1b", "assay_type": "biochemical", "conditions": "IC50 [gt-1b] (nM), NS3/4A genotype 1b, enzyme 0.2 nM", "method_in_brief": "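Enzyme 0.2 nM 1b / 0.4 nM A156T / 0.025 nM 3a; 30 min preinc. w/ cpd; 25 nM TRF peptide; 2.5 h RT; ex 340/em 615 time-delayed; 4-param IC50 → Ki = IC50/(1+[S]/KM).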"}},
  "note": "Read-outs that look alike come from different tables or passages of the source.",
  "data": [
    {"compound": "CCCCCOC(=O)N[C@H]1CCCCC/C=C\\[C@@H]2C[C@@]2(C(=O)NS(=O)(=O)C2(C)CC2)NC(=O)[C@@H]2C[C@]3(CCc4c(c(C5CC5)nc5cc(OC)ccc45)O3)CN2C1=O", "note": "[Example 273, pentyl [(2R,6S,12Z,13aS,14aR,16aS)-5′-cyclopropyl-8′-methoxy-14a-{[(1-methylcyclopropyl)sulfonyl]carbamoyl}-5,16-dioxo-1,1′,2′,5,6,7,8,9,10,11,13a,14,14a,15,16,16a-hexadecahydrospiro[cyclopropa[e]pyrrolo[1,2-a][1,4]diazacyclopentadecine-2,3′-pyrano[2,3-c]quinolin]-6-yl]carbamate]", "values": [
      {"measurement": "EC50", "setting": "HCV genotype 1b replicon; HCOOH salt", "result": 163, "unit": "nM"},
      {"measurement": "IC50", "setting": "[1]; HCOOH salt", "result": 1.13, "unit": "nM"}
    ]},
    {"compound": "COc1ccc2c3c(c(C4CC4)nc2c1)O[C@]1(CC3)C[C@H]2C(=O)N[C@]3(C(=O)NS(=O)(=O)C4(C)CC4)C[C@H]3/C=C\\CCCCC[C@H](NC(=O)Oc3ccc(C)cc3)C(=O)N2C1", "note": "[Example 274, 4-methylphenyl [(2R,6S,12Z,13aS,14aR,16aS)-5′-cyclopropyl-8′-methoxy-14a-{[(1-methylcyclopropyl)sulfonyl]carbamoyl}-5,16-dioxo-1,1′,2′,5,6,7,8,9,10,11,13a,14,14a,15,16,16a-hexadecahydrospiro[cyclopropa[e]pyrrolo[1,2-a][1,4]diazacyclopentadecine-2,3′-pyrano[2,3-c]quinolin]-6-yl]carbamate]", "values": [
      {"measurement": "EC50", "setting": "HCV genotype 1b replicon; HCOOH salt", "result": 28.3, "unit": "nM"},
      {"measurement": "IC50", "setting": "[1]; HCOOH salt", "result": 0.832, "unit": "nM"}
    ]},
    {"compound": "COc1ccc2c3c(c(C4CC4)nc2c1)O[C@]1(CC3)C[C@H]2C(=O)N[C@]3(C(=O)NS(=O)(=O)C4(C)CC4)C[C@H]3/C=C\\CCCCC[C@H](NC(=O)O[C@H]3C[C@@H](C)CC[C@@H]3C(C)C)C(=O)N2C1", "note": "[Example 275, (1S,2R,5S)-5-methyl-2-(propan-2-yl)cyclohexyl [(2R,6S,12Z,13aS,14aR,16aS)-5′-cyclopropyl-8′-methoxy-14a-{[(1-methylcyclopropyl)sulfonyl]carbamoyl}-5,16-dioxo-1,1′,2′,5,6,7,8,9,10,11,13a,14,14a,15,16,16a-hexadecahydrospiro[cyclopropa[e]pyrrolo[1,2-a][1,4]diazacyclopentadecine-2,3′-pyrano[2,3-c]quinolin]-6-yl]carbamate]", "values": [
      {"measurement": "EC50", "setting": "HCV genotype 1b replicon; HCOOH salt", "result": 39.5, "unit": "nM"},
      {"measurement": "IC50", "setting": "[1]; HCOOH salt", "result": 11.3, "unit": "nM"}
    ]},
    {"compound": "COc1ccc2c3c(c(C4CC4)nc2c1)O[C@]1(CC3)C[C@H]2C(=O)N[C@]3(C(=O)NS(=O)(=O)C4(C)CC4)C[C@H]3/C=C\\CCCCC[C@H](NC(=O)O[C@@H]3C[C@H](C)CC[C@H]3C(C)C)C(=O)N2C1", "note": "[Example 276, (1R,2S,5R)-5-methyl-2-(propan-2-yl)cyclohexyl [(2R,6S,12Z,13aS,14aR,16aS)-5′-cyclopropyl-8′-methoxy-14a-{[(1-methylcyclopropyl)sulfonyl]carbamoyl}-5,16-dioxo-1,1′,2′,5,6,7,8,9,10,11,13a,14,14a,15,16,16a-hexadecahydrospiro[cyclopropa[e]pyrrolo[1,2-a][1,4]diazacyclopentadecine-2,3′-pyrano[2,3-c]quinolin]-6-yl]carbamate]", "values": [
      {"measurement": "EC50", "setting": "HCV genotype 1b replicon; HCOOH salt", "result": 104, "unit": "nM"},
      {"measurement": "IC50", "setting": "[1]; HCOOH salt", "result": 3.97, "unit": "nM"}
    ]},
    {"compound": "COc1ccc2c3c(c(C4CC4)nc2c1)O[C@]1(CC3)C[C@H]2C(=O)N[C@]3(C(=O)NS(=O)(=O)C4(C)CC4)C[C@H]3/C=C\\CCCCC[C@H](NC(=O)OCCF)C(=O)N2C1", "note": "[Example 277, 2-fluoroethyl [(2R,6S,12Z,13aS,14aR,16aS)-5′-cyclopropyl-8′-methoxy-14a-{[(1-methylcyclopropyl)sulfonyl]carbamoyl}-5,16-dioxo-1,1′,2′,5,6,7,8,9,10,11,13a,14,14a,15,16,16a-hexadecahydrospiro[cyclopropa[e]pyrrolo[1,2-a][1,4]diazacyclopentadecine-2,3′-pyrano[2,3-c]quinolin]-6-yl]carbamate]", "values": [
      {"measurement": "EC50", "setting": "HCV genotype 1b replicon; HCOOH salt", "result": 81.6, "unit": "nM"},
      {"measurement": "IC50", "setting": "[1]; HCOOH salt", "result": 1.05, "unit": "nM"}
    ]},
    {"compound": "COc1ccc2c3c(c(C4CC4)nc2c1)O[C@]1(CC3)C[C@H]2C(=O)N[C@]3(C(=O)NS(=O)(=O)C4(C)CC4)C[C@H]3/C=C\\CCCCC[C@H](NC(=O)OC3CCOC3)C(=O)N2C1", "note": "(stereo partly drawn) [Example 278, tetrahydrofuran-3-yl [(2R,6S,12Z,13aS,14aR,16aS)-5′-cyclopropyl-8′-methoxy-14a-{[(1-methylcyclopropyl)sulfonyl]carbamoyl}-5,16-dioxo-1,1′,2′,5,6,7,8,9,10,11,13a,14,14a,15,16,16a-hexadecahydrospiro[cyclopropa[e]pyrrolo[1,2-a][1,4]diazacyclopentadecine-2,3′-pyrano[2,3-c]quinolin]-6-yl]carbamate]", "values": [
      {"measurement": "EC50", "setting": "HCV genotype 1b replicon; HCOOH salt", "result": 12.4, "unit": "nM"},
      {"measurement": "IC50", "setting": "[1]; HCOOH salt", "result": 0.027, "unit": "nM"}
    ]},
    {"compound": "Cc1nc2ccc(OC(F)F)cc2c2c1O[C@]1(CC2)C[C@H]2C(=O)N[C@]3(C(=O)NS(=O)(=O)C4(C)CC4)C[C@H]3/C=C\\CCCCC[C@H](NC(=O)OCC(C)(C)C)C(=O)N2C1", "note": "[Example 280, 2,2-dimethylpropyl [(2R,6S,12Z,13aS,14aR,16aS)-9′-(difluoromethoxy)-5′-methyl-14a-{[(1-methylcyclopropyl)sulfonyl]carbamoyl}-5,16-dioxo-1,1′,2′,5,6,7,8,9,10,11,13a,14,14a,15,16,16a-hexadecahydrospiro[cyclopropa[e]pyrrolo[1,2-a][1,4]diazacyclopentadecine-2,3′-pyrano[2,3-c]quinolin]-6-yl]carbamate]", "values": [
      {"measurement": "EC50", "setting": "HCV genotype 1b replicon", "result": 2.84, "unit": "nM"},
      {"measurement": "IC50", "setting": "[1]", "result": 0.005, "unit": "nM"}
    ]},
    {"compound": "COc1ccc2nc(C(C)C)c3c(c2c1)C(F)(F)C[C@]1(C[C@H]2C(=O)N[C@]4(C(=O)NS(=O)(=O)C5(C)CC5)C[C@H]4/C=C\\CCCCC[C@H](NC(=O)OC(C)(C)CCS(=O)(=O)C(C)C)C(=O)N2C1)O3", "note": "[Example 281, 2-methyl-4-(propan-2-ylsulfonyl)butan-2-yl [(2S,6S,12Z,13aS,14aR,16aS)-1′,1′-difluoro-9′-methoxy-14a-{[(1-methylcyclopropyl)sulfonyl]carbamoyl}-5,16-dioxo-5′-(propan-2-yl)-1,1′,2′,5,6,7,8,9,10,11,13a,14,14a,15,16,16a-hexadecahydrospiro[cyclopropa[e]pyrrolo[1,2-a][1,4]diazacyclopentadecine-2,3′-pyrano[2,3-c]quinolin]-6-yl]carbamate]", "values": [
      {"measurement": "EC50", "setting": "HCV genotype 1b replicon", "result": 10.8, "unit": "nM"},
      {"measurement": "IC50", "setting": "[1]", "result": 0.06, "unit": "nM"}
    ]},
    {"compound": "Cc1nc2ccccc2c2c1O[C@]1(CC2)C[C@H]2C(=O)N[C@]3(C(=O)NS(=O)(=O)C4(C)CC4)C[C@H]3/C=C\\CCCCC[C@H](NC(=O)NC(C)C)C(=O)N2C1", "note": "[Example 282, (2R,6S,12Z,13aS,14aR,16aS)-5′-methyl-N-[(1-methylcyclopropyl)sulfonyl]-5,16-dioxo-6-[(propan-2-ylcarbamoyl)amino]-1,1′,2′,6,7,8,9,10,11,13a,14,15,16,16a-tetradecahydrospiro[cyclopropa[e]pyrrolo[1,2-a][1,4]diazacyclopentadecine-2,3′-pyrano[2,3-c]quinoline]-14a(5H)-carboxamide]", "values": [
      {"measurement": "EC50", "setting": "HCV genotype 1b replicon; HCOOH salt", "result": 43.6, "unit": "nM"},
      {"measurement": "IC50", "setting": "[1]; HCOOH salt", "result": 0.018, "unit": "nM"}
    ]},
    {"compound": "Cc1nc2ccccc2c2c1O[C@]1(CC2)C[C@H]2C(=O)N[C@]3(C(=O)NS(=O)(=O)C4(C)CC4)C[C@H]3/C=C\\CCCCC[C@H](NC(=O)NC3CCCC3)C(=O)N2C1", "note": "[Example 283, (2R,6S,12Z,13aS,14aR,16aS)-6-[(cyclopentylcarbamoyl)amino]-5′-methyl-N-[(1-methylcyclopropyl)sulfonyl]-5,16-dioxo-1,1′,2′,6,7,8,9,10,11,13a,14,15,16,16a-tetradecahydrospiro[cyclopropa[e]pyrrolo[1,2-a][1,4]diazacyclopentadecine-2,3′-pyrano[2,3-c]quinoline]-14a(5H)-carboxamide]", "values": [
      {"measurement": "EC50", "setting": "HCV genotype 1b replicon; HCOOH salt", "result": 19, "unit": "nM"},
      {"measurement": "IC50", "setting": "[1]; HCOOH salt", "result": 0.012, "unit": "nM"}
    ]},
    {"compound": "Cc1nc2ccccc2c2c1O[C@]1(CC2)C[C@H]2C(=O)N[C@]3(C(=O)NS(=O)(=O)C4(C)CC4)C[C@H]3/C=C\\CCCCC[C@H](NC(=O)NCc3ccccc3)C(=O)N2C1", "note": "[Example 284, (2R,6S,12Z,13aS,14aR,16aS)-6-[(benzylcarbamoyl)amino]-5′-methyl-N-[(1-methylcyclopropyl)sulfonyl]-5,16-dioxo-1,1′,2′,6,7,8,9,10,11,13a,14,15,16,16a-tetradecahydrospiro[cyclopropa[e]pyrrolo[1,2-a][1,4]diazacyclopentadecine-2,3′-pyrano[2,3-c]quinoline]-14a(5H)-carboxamide]", "values": [
      {"measurement": "EC50", "setting": "HCV genotype 1b replicon; HCOOH salt", "result": 58.7, "unit": "nM"},
      {"measurement": "IC50", "setting": "[1]; HCOOH salt", "result": 0.038, "unit": "nM"}
    ]},
    {"compound": "Cc1nc2ccccc2c2c1O[C@]1(CC2)C[C@H]2C(=O)N[C@]3(C(=O)NS(=O)(=O)C4(C)CC4)C[C@H]3/C=C\\CCCCC[C@H](NC(=O)NC3CCCCC3)C(=O)N2C1", "note": "[Example 285, (2R,6S,12Z,13aS,14aR,16aS)-6-[(cyclohexylcarbamoyl)amino]-5′-methyl-N-[(1-methylcyclopropyl)sulfonyl]-5,16-dioxo-1,1′,2′,6,7,8,9,10,11,13a,14,15,16,16a-tetradecahydrospiro[cyclopropa[e]pyrrolo[1,2-a][1,4]diazacyclopentadecine-2,3′-pyrano[2,3-c]quinoline]-14a(5H)-carboxamide]", "values": [
      {"measurement": "EC50", "setting": "HCV genotype 1b replicon; HCOOH salt", "result": 10.3, "unit": "nM"},
      {"measurement": "IC50", "setting": "[1]; HCOOH salt", "result": 0.002, "unit": "nM"}
    ]},
    {"compound": "CCNC(=O)N[C@H]1CCCCC/C=C\\[C@@H]2C[C@@]2(C(=O)NS(=O)(=O)C2(C)CC2)NC(=O)[C@@H]2C[C@]3(CCc4c(c(C)nc5ccccc45)O3)CN2C1=O", "note": "[Example 286, (2R,6S,12Z,13aS,14aR,16aS)-6-[(ethylcarbamoyl)amino]-5′-methyl-N-[(1-methylcyclopropyl)sulfonyl]-5,16-dioxo-1,1′,2′,6,7,8,9,10,11,13a,14,15,16,16a-tetradecahydrospiro[cyclopropa[e]pyrrolo[1,2-a][1,4]diazacyclopentadecine-2,3′-pyrano[2,3-c]quinoline]-14a(5H)-carboxamide]", "values": [
      {"measurement": "EC50", "setting": "HCV genotype 1b replicon", "result": 119, "unit": "nM"},
      {"measurement": "IC50", "setting": "[1]", "result": 0.015, "unit": "nM"}
    ]}
  ]
}
